Measured values as given in paper PMC10005332, “It Takes Two to Tango, Part II: Synthesis of A-Ring Functionalised Quinones Containing Two Redox-Active Centres with Antitumour Activities” (Molecules, 2023).
pIC50: −log10 of the molar value. Read-outs that look alike come from different tables or passages of the source.

Tests used:
[1] = test system: RAJI (human Burkitt’s lymphoma); assay: MTT cytotoxicity assay, RAJI; assay type: cell-based; details: for pIC50: Homo sapiens, Raji, 72 h, MTT, 72 h exposure, three independent experiments, read-out: Cytotoxic activity IC50 (95% CI) RAJI; for Selectivity index RAJI: ratio of cytotoxicity L929 / RAJI
Experimental: (§1) In this study, the IC50 was obtained in micromolar concentrations, using the colourimetric MTT (3-(4,5-dimethylthiazol-2-yl)-2,5-diphenyl tetrazolium bromide)) assay, and doxorubicin was used as the positive control. […] The activity against the non-tumoural murine fibroblast cell line L929 was also evaluated in order to study the cytotoxicity behaviour of each compound and to understand their respective relative selectivity. The selectivity index was obtained using the ratio of measured cytotoxicity between the L929 cell line and each of the cancer cell lines, and the results are presented in Table 2.
(§2) The in vitro cytotoxicity activity of the compounds was evaluated by the colorimetric MTT (3-(4,5-dimethylthiazol-2-yl)-2,5-diphenyl tetrazolium bromide)) assay using the following tumor cell lines: HCT-116 (colon carcinoma), PC3 (prostate), SNB-19 (glioblastoma), K-562 (myelogenous leukaemia), HL-60 (human promyelocytic leukaemia), B16 (murine melanoma), A549 (human lung carcinoma), KG1 (human acute myeloid leukaemia), and RAJI (human Burkitt’s lymphoma), which were provided by the National Cancer Institute (Bethesda, MD, USA). The L929 cell line (mouse fibroblast L cells NCTC clone 929) employed in this study as a control cell line was obtained from the American Type Culture Collection (Manassas, VA, USA). The cell lines (Table S4) were maintained in flasks containing RPMI 1640 or DMEM medium supplemented with 10% bovive fetal sérum, 100 U/mL penicillin, and 100 μg/mL streptomycin at 37 °C and in 5% CO2 atmosphere. The compounds tested were dissolved in DMSO. Doxorubicin served as the positive control. Cell treatments were performed with three replicates and the cells were mycoplasma free. After 72 h incubation, 100 μL of MTT solution (0.5 mg/mL) was added to each well, and the cells were incubated for 3 h. The supernatant was removed and 100 μL of DMSO was added and the absorbance at 595 nm was measured using Victor Nivo Multimode plate reader (PerkinElmer, Waltham, MA, USA). The absorbances obtained were used to calculate the IC50 values by nonlinear regression employing appropriate statistical software.
(§3) The in vitro cytotoxicity activity of compounds was evaluated by the colorimetric MTT (3-(4,5-dimethylthiazol-2-yl)-2,5-diphenyl tetrazolium bromide)) assay using tumor cell lines: HCT-116 (colon carcinoma), PC3 (prostate), SNB-19 (glioblastoma), K-562 (myelogenous leukaemia), HL-60 (human promyelocytic leukaemia), B16 (murine melanoma), A549 (human lung carcinoma), KG1 (human acute myeloid leukaemia) and RAJI (human Burkitt's lymphoma), which were provided by the National Cancer Institute (Bethesda, MD, USA). The L929 cell line (mouse fibroblast L cells NCTC clone 929) employed in this study as a control cell line was obtained from the American Type Culture […]
(§4) Collection (Manassas, VA, USA). Cell lines (Table 01) were maintained in flasks containing RPMI 1640 or DMEM medium supplemented with 10% bovive fetal sérum, 100 U/mL penicillin, and 100 μg/mL streptomycin at 37 °C and 5% CO2 atmosphere.
(§5) Compounds tested were dissolved in DMSO. Doxorubicin served as positive control. Cell treatments were performed with three replicates and cells were mycoplasma-free. After 72 h incubation, 100 μL of MTT solution (0.5 mg/mL) was added to each well, and cells were incubated for 3 h. The supernatant was removed and 100 μL of DMSO was added and the absorbance at 595 nm was measured using Victor Nivo Multimode plate reader

[2] = test system: HL60 (human pro-myelocytic leukaemia); assay: MTT cytotoxicity assay, HL60; assay type: cell-based; details: for pIC50: Homo sapiens, HL-60, 72 h, MTT, 72 h exposure, three independent experiments, read-out: Cytotoxic activity IC50 (95% CI) HL60; for Selectivity index HL60: ratio of cytotoxicity L929 / HL60
Experimental: as §1, §2, §3, §4, §5

[3] = test system: PC3 (human prostate adenocarcinoma); assay: MTT cytotoxicity assay, PC3; assay type: cell-based; details: for pIC50: Homo sapiens; for Selectivity index PC3: ratio of cytotoxicity L929 / PC3
Experimental: as §1, §2, §3, §4, §5

[4] = test system: KG1 (human acute myeloid leukaemia); assay: MTT cytotoxicity assay, KG1; assay type: cell-based; details: for pIC50: Homo sapiens, MTT, 72 h exposure, three independent experiments, read-out: Cytotoxic activity IC50 (95% CI) KG1; for Selectivity index KG1: ratio of cytotoxicity L929 / KG1
Experimental: as §1, §2, §3, §4, §5

[5] = test system: K-562 (human chronic myeloid leukaemia); assay: MTT cytotoxicity assay, K-562; assay type: cell-based; details: for pIC50: Homo sapiens, K562, MTT, 72 h exposure, three independent experiments, read-out: Cytotoxic activity IC50 (95% CI) K-562; for Selectivity index K-562: ratio of cytotoxicity L929 / K-562
Experimental: as §1, §2, §3, §4, §5

[6] = test system: SNB-19 (human astrocytoma); assay: MTT cytotoxicity assay, SNB-19; assay type: cell-based; details: for pIC50: Homo sapiens, SNB-19, MTT, 72 h exposure, three independent experiments, read-out: Cytotoxic activity IC50 (95% CI) SNB-19; for Selectivity index SNB-19: ratio of cytotoxicity L929 / SNB-19
Experimental: as §1, §2, §3, §4, §5

[7] = test system: A549 (human lung carcinoma); assay: MTT cytotoxicity assay, A549; assay type: cell-based; details: for pIC50: Homo sapiens, A549, MTT, 72 h exposure, three independent experiments, read-out: Cytotoxic activity IC50 (95% CI) A549; for Selectivity index A549: ratio of cytotoxicity L929 / A549
Experimental: as §1, §2, §3, §4, §5

B16 (murine melanoma) = assay: MTT cytotoxicity assay, B16; assay type: cell-based; details: for pIC50: Mus musculus, MTT, 72 h exposure, three independent experiments, read-out: Cytotoxic activity IC50 (95% CI) B16; for Selectivity index B16: ratio of cytotoxicity L929 / B16
Experimental: as §1, §2, §3, §4, §5

[8] = MTT cytotoxicity assay, L929 control line; assay type: cell-based, mouse; details: mouse, L929 fibroblast cells (non-tumoral control line), 72 h exposure, read-out: Cytotoxic activity IC50 (95% CI) L929
Experimental: as §1, §2, §3, §4, §5

[9] = test system: HCT-116 (human colorectal carcinoma); assay: MTT cytotoxicity assay, HCT-116; assay type: cell-based; details: for pIC50: Homo sapiens, HCT-116, 72 h, MTT, 72 h exposure, three independent experiments, read-out: Cytotoxic activity IC50 (95% CI) HCT-116; for Selectivity index HCT-116: ratio of cytotoxicity L929 / HCT-116
Experimental: as §1, §2, §3, §4, §5

[10] = MTT, 72 h exposure, three independent experiments, read-out: Cytotoxic activity IC50 (95% CI) PC3

Row | Structure (SMILES) | pIC50 [1] | Selectivity index RAJI [1] | pIC50 [2] | Selectivity index HL60 [2] | pIC50 [3, 10] | Selectivity index PC3 [3] | pIC50 [4] | Selectivity index KG1 [4] | pIC50 [5] | Selectivity index K-562 [5] | pIC50 [6] | Selectivity index SNB-19 [6] | pIC50 [7] | Selectivity index A549 [7] | pIC50 (B16 (murine melanoma)) | Selectivity index B16 (B16 (murine melanoma)) | IC50 at 72 h [8] | pIC50 [9] | Selectivity index HCT-116 [9] | pIC50 ([3]; 72 h, read-out: Bioactivity class according to IC50, PC3)
1 | CC1(C)OC2=C(CC1Cn1cc(CNC3=CC(=O)c4c(O)cccc4C3=O)nn1)C(=O)C(=O)c1ccccc12 (stereo not drawn) [Compound 21b, 3-((4-(((5-hydroxy-1,4-dioxo-1,4-dihydronaphthalen-2-yl)amino)methyl)-1H-1,2,3-triazol-1-yl)methyl)-2,2-dimethyl-3,4-dihydro-2H-benzo[h]chromene-5,6-dione] | 5.70 | 1.0 | 5.65 | 0.9 | 5.41 | 0.5 | 5.52 | 0.7 | 5.38 | 0.5 | 5.37 | 0.5 | 5.77 | 1.2 | 5.40 | 0.5 | 2.07 µM | 5.79 | 1.3 | –
2 | CC1(C)OC2=C(C(=O)C(=O)c3ccccc32)C1n1cc(CNC2=CC(=O)c3c(O)cccc3C2=O)nn1 (stereo not drawn) [Compound 19b, 3-(4-(((5-hydroxy-1,4-dioxo-1,4-dihydronaphthalen-2-yl)amino)methyl)-1H-1,2,3-triazol-1-yl)-2,2-dimethyl-2,3-dihydronaphtho[1,2-b]furan-4,5-dione] | 5.59 | 2.3 | 6.00 | 6.0 | 5.50 | 1.9 | 5.28 | 1.1 | 5.50 | 1.9 | 5.47 | 1.8 | 5.50 | 1.9 | 5.45 | 1.7 | 5.97 µM | 5.77 | 3.5 | –
3 | CC1(C)OC2=C(C(=O)C(=O)c3ccccc32)C1n1cc(CNC2=CC(=O)c3cc4ccccc4cc3C2=O)nn1 (stereo not drawn) [Compound 19e, 3-(4-(((1,4-dioxo-1,4-dihydroanthracen-2-yl)amino)methyl)-1H-1,2,3-triazol-1-yl)-2,2-dimethyl-2,3-dihydronaphtho[1,2-b]furan-4,5-dione] | 5.77 | 2.9 | 6.07 | 5.6 | 5.46 | 1.4 | 5.32 | 1.0 | 5.09 | 0.6 | 5.45 | 1.4 | 5.21 | 0.8 | 5.40 | 1.2 | 4.83 µM | 5.58 | 1.8 | –
4 | [N-]=[N+]=NCC1CC2=C(O1)c1ccccc1C(=O)C2=O (stereo not drawn) [Compound 7, 2-(azidomethyl)-2,3-dihydronaphtho[1,2-b]furan-4,5-dione] | 6.28 | 6.5 | 6.23 | 5.9 | 5.65 | 1.5 | 5.44 | 0.9 | 6.01 | 3.5 | 5.84 | 2.4 | 5.58 | 1.3 | 5.70 | 1.7 | 3.46 µM | 5.74 | 1.9 | 5.00 to 5.70
5 | C#CCNC1=CC(=O)c2cccc(OCc3ccccc3)c2C1=O [Compound 18d, 8-benzyloxy-2-(prop-2-yn-1-ylamino)naphthalene-1,4-dione] | < 4.00 | – | 4.50 | 3.1 | < 4.00 | – | < 4.00 | – | < 4.00 | – | < 4.00 | – | < 4.00 | – | 4.45 | 2.8 | > 100 µM | < 4.00 | – | –
6 | CC1(C)OC2=C(C(=O)C(=O)c3ccccc32)C1N=[N+]=[N-] (stereo not drawn) [Compound 4, 3-azido-2,2-dimethyl-2,3-dihydronaphtho[1,2-b]furan-4,5-dione] | 5.61 | 1.1 | 5.97 | 2.5 | 5.23 | 0.5 | 5.22 | 0.5 | 5.85 | 1.9 | 5.68 | 1.3 | 5.44 | 0.8 | 5.75 | 1.5 | 2.74 µM | 5.71 | 1.4 | –
